SMILES strings stand for the structures.

As usually defined, the IC50 is the midpoint of a concentration-inhibition curve.

The test deals with RAW264.7. Briefly: Antiinflammatory activity in mouse RAW264.7 cells assessed as inhibition of LPS-stimulated nitric oxide production treated for 2 hrs before LPS challenge measured after 24 hrs […]. Format: functional, cell-based. Background: In an ELISA, binding on a coated surface is turned into a signal by an enzyme label.
As to `N=C(N)NN` [PIMAGEDINE], the IC50 came to 4.6 µM.

For `COC(=O)/C=C/NC(=O)c1cc2c([nH]c3ccccc32)c(C(C)=O)n1` [DICHOTOMIDE III], the IC50 came out at 17.3 µM.

On to `CC(=O)c1nc(C(N)=O)cc2c1[nH]c1ccccc12` [STELLARINES A], for which the half-inhibitory concentration (IC50) turned out to be 19.3 µM.

For `COC(=O)c1cc2c([nH]c3ccccc32)c(C(C)=O)n1`, the 50% inhibitory concentration (IC50) came out at 17.9 µM.

As to `C/C=C(/C)C(=O)O[C@@H](C)c1nc(C(=O)N/C=C/C(=O)OC)cc2c1[nH]c1ccccc12` [DICHOTOMIDE X], the IC50 is 11.3 µM.

Turning to `COC(=O)/C=C\NC(=O)c1cc2c([nH]c3ccccc32)c(C(C)=O)n1` [STELLARINES B], the IC50 was 18.6 µM.

The record behind these values is ChEMBL document CHEMBL1649360, “β-carboline alkaloids from Stellaria dichotoma var. lanceolata and their anti-inflammatory activity” (J Nat Prod, 2010).
